The results in this text go back to patent US8071768B2, “Alkylquinoline and alkylquinazoline kinase modulators” (Janssen Pharmaceutica, N.V., priority 2005, dated 2011).

T1 sequence (Q16620 32-822): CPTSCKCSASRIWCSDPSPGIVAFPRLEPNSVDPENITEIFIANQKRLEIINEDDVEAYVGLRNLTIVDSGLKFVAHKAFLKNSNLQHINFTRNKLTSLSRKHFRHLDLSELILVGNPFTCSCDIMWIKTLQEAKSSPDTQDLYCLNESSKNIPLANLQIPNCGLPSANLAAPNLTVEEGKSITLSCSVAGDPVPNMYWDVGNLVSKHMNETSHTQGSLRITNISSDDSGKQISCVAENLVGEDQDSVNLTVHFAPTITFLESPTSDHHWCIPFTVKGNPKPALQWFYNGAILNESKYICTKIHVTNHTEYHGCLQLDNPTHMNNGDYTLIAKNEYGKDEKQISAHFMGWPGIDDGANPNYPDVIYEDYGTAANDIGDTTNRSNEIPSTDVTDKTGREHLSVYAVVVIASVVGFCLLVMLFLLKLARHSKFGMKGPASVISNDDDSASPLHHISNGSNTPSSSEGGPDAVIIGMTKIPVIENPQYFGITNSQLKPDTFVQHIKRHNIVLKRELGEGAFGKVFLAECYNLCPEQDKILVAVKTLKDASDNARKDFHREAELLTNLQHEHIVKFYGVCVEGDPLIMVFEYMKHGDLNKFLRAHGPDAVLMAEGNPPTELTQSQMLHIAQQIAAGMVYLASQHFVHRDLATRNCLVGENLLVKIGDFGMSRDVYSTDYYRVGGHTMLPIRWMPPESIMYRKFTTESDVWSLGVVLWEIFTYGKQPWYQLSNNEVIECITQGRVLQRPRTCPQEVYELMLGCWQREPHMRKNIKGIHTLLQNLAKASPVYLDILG

The experiment has as its target T1, TrkB (Homo sapiens, UniProt Q16620).
T1 construct: purchased Upstate 14-507M
The experiment can be described thus: Trk B Fluorescence Polarization Kinase Assay. The experiment is classed as biochemical. The conditions noted are these: uncertainty ±10%. As to the method: Trk B Fluorescence Polarization Kinase Assay (TrkB IC50 Data)
The compounds of the present invention are also specific inhibitors of TrkB. Selection of preferred compounds of Formula I for use as TrkB inhibitors was performed in the following manner. The TrkB assay utilized the fluorescein-labeled phosphopeptide and the anti-phosphotyrosine antibody included in the Panvera Phospho-Tyrosine Kinase Kit (Green) supplied by Invitrogen. When TrkB phosphorylated poly Glu4Tyr, the fluorescein-labeled phosphopeptide was displaced from the anti-phosphotyrosine antibody by the phosphorylated poly Glu4Tyr, thus decreasing the FP value. The TrkB kinase reaction was incubated at room temperature for 30 minutes under the following conditions: 50 nM TrkB (Upstate, catalog # 14-507M), 20 ug/mL poly Glu4Tyr, 150 uM ATP, 5 mM MgCl2, 1% compound in DMSO. The kinase reaction was stopped with the addition of EDTA. The fluorescein-labeled phosphopeptide and the anti-phosphotyrosine antibody were added and incubated for 30 minutes at room temperature. Data points were an average of triplicate samples. Inhibition and IC50 data analysis were done with GraphPad Prism using a non-linear regression fit with a multiparamater, sigmoidal dose-response (variable slope) equation.
(Fluorescence polarisation rises when a labelled molecule tumbles more slowly, as on binding a larger partner.)
For the compound `COc1cc2ncnc(C3CCN(C(=O)Nc4ccc(C5=CCNCC5)cc4)CC3)c2cc1OC` [Compound 62, 4-(6,7-Dimethoxy-quinazolin-4-yl)-piperidine-1-carboxylic acid [4-(1,2,3,6-tetrahydro-pyridin-4-yl)-phenyl]-amide], the IC50 (as a rule, the point on the concentration scale where inhibition reaches its midpoint) is over 10 µM.

Compound `COc1cc2ncnc(C3CCN(C(=O)Nc4ccc(C5CCN(C(=O)OC(C)(C)C)CC5)cc4)CC3)c2cc1OC` [Compound 63, 4-(4-{[4-(6,7-Dimethoxy-quinazolin-4-yl)-piperidine-1-carbonyl]-amino}-phenyl)-piperidine-1-carboxylic acid tert-butyl ester] displayed an IC50 of over 42 µM.

Consider `COc1cc2ncnc(C3CCN(C(=O)Nc4ccc(C5CCNCC5)cc4)CC3)c2cc1OC` [Compound 64, 4-(6,7-Dimethoxy-quinazolin-4-yl)-piperidine-1-carboxylic acid (4-piperidin-4-yl-phenyl)-amide], for which the 50% inhibitory concentration (IC50) came out at 37.8 µM.

The compound `CC(C)Oc1ccc(NC(=O)N2CCC(c3ncnc4cc(OCCCNS(C)(=O)=O)ccc34)CC2)cc1` [Compound 65, 4-[7-(3-Methanesulfonylamino-propoxy)-quinazolin-4-yl]-piperidine-1-carboxylic acid (4-isopropoxy-phenyl)-amide] displayed an IC50 of 0.5 µM.

`CS(=O)(=O)NCCCOc1ccc2c(C3CCN(C(=O)Nc4ccc(N5CCOCC5)cc4)CC3)ncnc2c1` [Compound 66, 4-[7-(3-Methanesulfonylamino-propoxy)-quinazolin-4-yl]-piperidine-1-carboxylic acid (4-morpholin-4-yl-phenyl)-amide] displayed an IC50 of over 42 µM.

On to `CC(C)Oc1ccc(NC(=O)N2CCC(c3ncnc4cc(OCCCN5CCCC5=O)ccc34)CC2)cc1` [Compound 67, 4-{7-[3-(2-Oxo-pyrrolidin-1-yl)-propoxy]-quinazolin-4-yl}-piperidine-1-carboxylic acid (4-isopropoxy-phenyl)-amide], for which the concentration for half-maximal inhibition (IC50) was 0.6 µM.

Turning to `COc1cc2ncnc(C3CCN(C(=O)Nc4ccc(OC5CCCC5)nc4)CC3)c2cc1OC` [Compound 69, 4-(6,7-Dimethoxy-quinazolin-4-yl)-piperidine-1-carboxylic acid (6-cyclopentyloxy-pyridin-3-yl)-amide], it took 0.15 µM to reach half-maximal inhibition (IC50).

Consider `COc1cc2ncnc(C3CCN(C(=O)Nc4ccc(N5CCCCCC5)cc4)CC3)c2cc1OC` [Compound 70, 4-(6,7-Dimethoxy-quinazolin-4-yl)-piperidine-1-carboxylic acid (4-azepan-1-yl-phenyl)-amide], for which the IC50 came to 2.7 µM.

Compound `COc1cc2ncnc(C3CCN(C(=O)Nc4ccc(N5CCCCC5)c(Cl)c4)CC3)c2cc1OC` [Compound 71, 4-(6,7-Dimethoxy-quinazolin-4-yl)-piperidine-1-carboxylic acid (3-chloro-4-piperidin-1-yl-phenyl)-amide] gave an IC50 of 6.1 µM.

In turn, `O=C(Nc1ccc(N2CCOCC2)cc1)N1CCC(c2ncnc3cc(OCCCN4CCCCC4)ccc23)CC1` [Compound 75] came in with an IC50 of over 20 µM.

As for `O=C(Nc1ccc(N2CCOCC2)cc1)N1CCC(c2ncnc3cc(OCCCO)ccc23)CC1` [Compound 77, 4-[7-(3-Hydroxy-propoxy)-quinazolin-4-yl]-piperidine-1-carboxylic acid (4-morpholin-4-yl-phenyl)-amide], the IC50 was over 20 µM.

`COCCCOc1ccc2c(C3CCN(C(=O)Nc4ccc(N5CCOCC5)cc4)CC3)ncnc2c1` [Compound 78, 4-[7-(3-Methoxy-propoxy)-quinazolin-4-yl]-piperidine-1-carboxylic acid (4-morpholin-4-yl-phenyl)-amide]: the half-inhibitory concentration (IC50) turned out to be 18.4 µM.

Consider `CC(C)Oc1ccc(NC(=O)N2CCC(c3ncnc4cc(OCCN5CCOC5=O)ccc34)CC2)cc1` [Compound 79, 4-{7-[2-(2-Oxo-oxazolidin-3-yl)-ethoxy]-quinazolin-4-yl}-piperidine-1-carboxylic acid (4-isopropoxy-phenyl)-amide], for which the IC50 stood at 0.3 µM.

For `CN1CCN(CCCOc2ccc3c(C4CCN(C(=O)Nc5ccc(N6CCOCC6)c(F)c5)CC4)ncnc3c2)CC1` [Compound 81, 4-{7-[3-(4-Methyl-piperazin-1-yl)-propoxy]-quinazolin-4-yl}-piperidine-1-carboxylic acid (3-fluoro-4-morpholin-4-yl-phenyl)-amide], the IC50 is over 20 µM.

For the compound `CN1CCN(CCCOc2ccc3c(C4CCN(C(=O)Nc5ccc(OC6CCCC6)nc5)CC4)ncnc3c2)CC1` [Compound 82, 4-{7-[3-(4-Methyl-piperazin-1-yl)-propoxy]-quinazolin-4-yl}-piperidine-1-carboxylic acid (6-cyclopentyloxy-pyridin-3-yl)-amide], the IC50 came to 0.4 µM.

`O=C1CCCN1CCOc1ccc2c(C3CCN(C(=O)Nc4cnc(N5CCCC5)nc4)CC3)ncnc2c1` [Compound 84, 4-{7-[2-(2-Oxo-pyrrolidin-1-yl)-ethoxy]-quinazolin-4-yl}-piperidine-1-carboxylic acid (2-pyrrolidin-1-yl-pyrimidin-5-yl)-amide] registered a 50% inhibitory concentration (IC50) of 0.8 µM.

In the case of `O=C1CCCN1CCOc1ccc2c(C3CCN(C(=O)Nc4ccc(N5CCOCC5)cc4)CC3)ncnc2c1` [Compound 85, 4-{7-[2-(2-Oxo-pyrrolidin-1-yl)-ethoxy]-quinazolin-4-yl}-piperidine-1-carboxylic acid (4-morpholin-4-yl-phenyl)-amide], the IC50 is over 20 µM.

In turn, `CS(=O)(=O)NCCCOc1ccc2c(C3CCN(C(=O)Nc4ccc(N5CCCC5)nc4)CC3)ncnc2c1` [Compound 86, 4-[7-(3-Methanesulfonylamino-propoxy)-quinazolin-4-yl]-piperidine-1-carboxylic acid (6-pyrrolidin-1-yl-pyridin-3-yl)-amide] gave an IC50 of 2 µM.

Compound `CS(=O)(=O)NCCCOc1ccc2c(C3CCN(C(=O)Nc4ccc(N5CCOCC5)nc4)CC3)ncnc2c1` [Compound 87, 4-[7-(3-Methanesulfonylamino-propoxy)-quinazolin-4-yl]-piperidine-1-carboxylic acid (6-morpholin-4-yl-pyridin-3-yl)-amide] came in with an IC50 of 7.2 µM.

As for `O=C1CCCN1CCCOc1ccc2c(C3CCN(C(=O)Nc4cnc(N5CCCC5)nc4)CC3)ncnc2c1` [Compound 90, 4-{7-[3-(2-Oxo-pyrrolidin-1-yl)-propoxy]-quinazolin-4-yl}-piperidine-1-carboxylic acid (2-pyrrolidin-1-yl-pyrimidin-5-yl)-amide], the half-inhibitory concentration (IC50) amounted to 0.3 µM.

`O=C(Nc1ccc(N2CCOCC2)nc1)N1CCC(c2ncnc3cc(OCCN4CCOC4=O)ccc23)CC1` [Compound 91, 4-{7-[2-(2-Oxo-oxazolidin-3-yl)-ethoxy]-quinazolin-4-yl}-piperidine-1-carboxylic acid (6-morpholin-4-yl-pyridin-3-yl)-amide] returned a 50% inhibitory concentration (IC50) of 1.9 µM.

For the compound `O=C(Nc1ccc(N2CCCC2)nc1)N1CCC(c2ncnc3cc(OCCN4CCOC4=O)ccc23)CC1` [Compound 92, 4-{7-[2-(2-Oxo-oxazolidin-3-yl)-ethoxy]-quinazolin-4-yl}-piperidine-1-carboxylic acid (6-pyrrolidin-1-yl-pyridin-3-yl)-amide], the IC50 amounted to 1.3 µM.

With `CN1CCC(COc2ccc3c(C4CCN(C(=O)Nc5ccc(N6CCOCC6)cc5)CC4)ncnc3c2)CC1` [Compound 94, 4-[7-(1-Methyl-piperidin-4-ylmethoxy)-quinazolin-4-yl]-piperidine-1-carboxylic acid (4-morpholin-4-yl-phenyl)-amide], the half-maximal inhibitory concentration (IC50) was over 42 µM.
